Assay results taken from patent publication US10442796B2, “2,3,5-substituted thiophene compound as protein kinase inhibitor” (KOREA INSTITUTE OF SCIENCE AND TECHNOLOGY, priority 2016, dated 2019).

Tests used:
[1] = tested on: FLT3-ITD-F691L-D835Y Ba/F3 cells; assay: In vivo bioluminescent efficacy study in mouse AML model; conditions: for T/C, reduction of luminescence: compared with AC220-treated and vehicle control mice
Method: (§1) Nude mice (5-6 weeks old)(Orient) were purchased and used after a week. Mice were anesthetized following IACUC approved animal protocol. FLT3-ITD F691L-D835Y, luc+ Ba/F3 cell (Established in-house) suspension (in 0.1 mL RPMI1640 (Welgene) of 1.0×10^6 cells) was injected into tail vein intravenously using a 29-G needle, and an tail mark was added to each animal for identification. After 6 days, the luminescence intensity was measured using IVIS (Perkin Elmer) to calculate the ROI intensity. Once ROI intensity reaches the study-desired minimum intensity (usually 2×106), mice were randomized into different treatment groups based on signal intensity.
(§2) Each compound was dissolved in NMP at 20× final concentration and diluted to 1× with the remaining vehicle components (vehicle: 5% NMP, 15% solutol (Sigma-aldrich), 30% PEG400 (Sigma-aldrich), 50% 0.05M citric acid (Sigma-aldrich)). Each compound solution was prepared freshly just before administration. Compounds were administered orally using a mouse sondae once a day, 0.1 mL per mouse. Mice were humanely euthanized if animals experience 20% body weight loss.
(§3) D-Luciferin (Promega) was dissolved in DPBS (Welgene) (without Ca2+ and Mg2+) at 15 mg/mL, and the stock solution was prepared after filtration using 0.22 μm syringe filters (BD). Luciferin solution (150 mg/kg in DPBS) was injected intraperitoneally into each mouse (200 μL/mouse). After 5 min, mice were anesthetized for 5 min using isoflurane (JW Pharma). Luminescence signal was read using IVIS200 (exposure time: auto, binning: 8, F/stop: 1). Signal intensity and body weights were measured every 3 days to monitor the ROI intensity and treatment-induced body weight loss. […] Data was analyzed using Living Image software (Caliper, PerkinElmer).
(§4) Statistical analysis of luminescence signal intensity, mouse body weight, and spleen/body weight ratio were evaluated using two-way ANOVA. Differences were considered statistically significant at p<0.005.

[2] = Body weight change during bioluminescent in vivo efficacy study; parameters: species or system mouse; conditions: po, qd
Method: as §2, §3, §4

[3] = tested on: FLT3-ITD-F691L-D835Y Ba/F3 cells; assay: Spleen size in mouse AML model; assay type: in vivo; conditions: 15, 30 mg/kg; after drug administration for 9 days
Method: as §1
Each compound was dissolved in NMP at 20× final concentration and diluted to 1× with the remaining vehicle components (vehicle: 5% NMP, 15% solutol (Sigma-aldrich), 30% PEG400 (Sigma-aldrich), 50% 0.05M citric acid (Sigma-aldrich)). Each compound solution was prepared freshly just before administration. […]
Mice were then euthanized by cervical dislocation while they were still under isoflurane anesthesia. The spleens from the mice were isolated and weighted, and spleen weight index was calculated as organ weight (mg) per gram of mouse body weight. […]
Statistical analysis of luminescence signal intensity, mouse body weight, and spleen/body weight ratio were evaluated using two-way ANOVA. […]

[4] = tested on: FLT3-ITD-F691L-D835Y Ba/F3 cells; assay: In vivo life-span (survival) in mouse AML model; conditions: for extension of lifespan compared with vehicle control: oral; for Median survival: qd
Method: as §1, with “intensity.” for “intensity. Once ROI intensity reaches the study-desired minimum intensity (usually 2×106), mice were randomized into different treatment groups based on signal intensity.”
Each compound solution was prepared freshly just before administration. Compounds were administered orally using a mouse sondae once a day, 0.1 mL per mouse. Mice were humanely euthanized if animals experience 20% body weight loss.

FLT4 = FLT4 (Homo sapiens, UniProt P35916); assay: Kinase inhibitory activity, full kinase panel; assay type: biochemical; conditions: single concentration of 1 μM, read-out: %Inhibitory ability
In short: (§5)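 In this profiling, enzyme activity was measured biochemically in the presence of one fluorophenylethynyl-substituted compound, and each value is expressed as percent inhibitory ability.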

MAP4K3 = MAP4K3 (Homo sapiens, UniProt Q8IVH8); assay: Kinase inhibitory activity, full kinase panel; assay type: biochemical; conditions: single concentration of 1 μM, read-out: %Inhibitory ability
In short: as §5

MAP4K5 = MAP4K5 (Homo sapiens, UniProt Q9Y4K4); assay: Kinase inhibitory activity, full kinase panel; assay type: biochemical; conditions: single concentration of 1 μM, read-out: %Inhibitory ability
In short: as §5

Chain of FLT4 (P35916 25-1363, species assumed): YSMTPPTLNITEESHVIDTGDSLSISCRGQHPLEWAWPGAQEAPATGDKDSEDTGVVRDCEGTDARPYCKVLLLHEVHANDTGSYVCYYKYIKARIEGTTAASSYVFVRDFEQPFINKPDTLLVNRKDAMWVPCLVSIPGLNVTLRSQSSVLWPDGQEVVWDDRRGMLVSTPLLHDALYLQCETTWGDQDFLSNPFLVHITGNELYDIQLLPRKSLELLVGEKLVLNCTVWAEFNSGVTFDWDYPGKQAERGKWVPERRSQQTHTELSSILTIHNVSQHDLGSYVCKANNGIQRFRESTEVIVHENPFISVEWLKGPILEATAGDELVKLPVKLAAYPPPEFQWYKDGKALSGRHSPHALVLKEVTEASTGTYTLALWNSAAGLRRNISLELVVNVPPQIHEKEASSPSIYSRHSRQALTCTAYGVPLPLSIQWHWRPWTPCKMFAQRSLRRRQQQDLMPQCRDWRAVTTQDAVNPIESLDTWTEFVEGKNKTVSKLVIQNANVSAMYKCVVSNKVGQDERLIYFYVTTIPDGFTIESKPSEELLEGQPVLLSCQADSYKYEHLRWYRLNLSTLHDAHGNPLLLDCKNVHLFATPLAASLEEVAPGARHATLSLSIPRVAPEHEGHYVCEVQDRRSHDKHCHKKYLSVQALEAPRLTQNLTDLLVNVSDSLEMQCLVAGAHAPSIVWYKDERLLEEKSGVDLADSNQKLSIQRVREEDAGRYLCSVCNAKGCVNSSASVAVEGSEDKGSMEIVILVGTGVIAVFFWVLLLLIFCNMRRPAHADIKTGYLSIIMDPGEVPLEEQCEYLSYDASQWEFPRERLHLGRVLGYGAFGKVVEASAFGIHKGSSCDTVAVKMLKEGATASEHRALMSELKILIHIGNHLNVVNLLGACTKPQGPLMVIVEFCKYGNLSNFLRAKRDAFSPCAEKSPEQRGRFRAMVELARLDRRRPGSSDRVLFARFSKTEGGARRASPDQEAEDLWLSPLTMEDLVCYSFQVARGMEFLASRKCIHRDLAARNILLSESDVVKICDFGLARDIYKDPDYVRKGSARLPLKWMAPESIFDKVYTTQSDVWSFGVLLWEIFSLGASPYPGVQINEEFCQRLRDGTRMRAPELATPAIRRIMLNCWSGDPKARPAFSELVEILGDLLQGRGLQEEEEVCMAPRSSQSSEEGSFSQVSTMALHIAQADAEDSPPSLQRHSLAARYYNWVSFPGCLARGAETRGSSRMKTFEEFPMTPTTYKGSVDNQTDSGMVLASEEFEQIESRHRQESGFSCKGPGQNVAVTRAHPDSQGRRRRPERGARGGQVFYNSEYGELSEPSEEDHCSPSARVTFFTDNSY
Chain of MAP4K3 (Q8IVH8 whole entry, species assumed): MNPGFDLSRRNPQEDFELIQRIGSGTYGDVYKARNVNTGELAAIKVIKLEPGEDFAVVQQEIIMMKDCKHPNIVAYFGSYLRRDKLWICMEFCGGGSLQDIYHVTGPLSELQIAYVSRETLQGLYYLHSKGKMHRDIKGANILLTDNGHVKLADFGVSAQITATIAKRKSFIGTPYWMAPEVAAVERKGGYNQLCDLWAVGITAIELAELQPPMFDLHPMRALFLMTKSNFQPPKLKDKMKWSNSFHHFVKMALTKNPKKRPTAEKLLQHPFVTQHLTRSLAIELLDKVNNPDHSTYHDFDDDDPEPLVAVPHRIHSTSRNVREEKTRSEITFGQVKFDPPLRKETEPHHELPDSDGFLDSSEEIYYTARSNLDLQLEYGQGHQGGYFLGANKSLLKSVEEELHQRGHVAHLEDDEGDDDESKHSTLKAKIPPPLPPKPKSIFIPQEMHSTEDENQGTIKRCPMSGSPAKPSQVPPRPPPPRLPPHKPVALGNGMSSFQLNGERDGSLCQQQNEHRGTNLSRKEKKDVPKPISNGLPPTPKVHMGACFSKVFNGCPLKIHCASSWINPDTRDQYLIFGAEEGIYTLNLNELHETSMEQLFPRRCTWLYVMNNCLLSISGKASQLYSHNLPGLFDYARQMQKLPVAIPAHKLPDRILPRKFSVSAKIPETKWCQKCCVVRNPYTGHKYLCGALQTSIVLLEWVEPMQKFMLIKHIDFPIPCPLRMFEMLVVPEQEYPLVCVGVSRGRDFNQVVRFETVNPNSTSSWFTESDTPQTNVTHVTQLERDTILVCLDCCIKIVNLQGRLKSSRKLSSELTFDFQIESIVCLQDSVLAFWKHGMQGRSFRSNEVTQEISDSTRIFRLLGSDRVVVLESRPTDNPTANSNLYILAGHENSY
Chain of MAP4K5 (Q9Y4K4 whole entry, species assumed): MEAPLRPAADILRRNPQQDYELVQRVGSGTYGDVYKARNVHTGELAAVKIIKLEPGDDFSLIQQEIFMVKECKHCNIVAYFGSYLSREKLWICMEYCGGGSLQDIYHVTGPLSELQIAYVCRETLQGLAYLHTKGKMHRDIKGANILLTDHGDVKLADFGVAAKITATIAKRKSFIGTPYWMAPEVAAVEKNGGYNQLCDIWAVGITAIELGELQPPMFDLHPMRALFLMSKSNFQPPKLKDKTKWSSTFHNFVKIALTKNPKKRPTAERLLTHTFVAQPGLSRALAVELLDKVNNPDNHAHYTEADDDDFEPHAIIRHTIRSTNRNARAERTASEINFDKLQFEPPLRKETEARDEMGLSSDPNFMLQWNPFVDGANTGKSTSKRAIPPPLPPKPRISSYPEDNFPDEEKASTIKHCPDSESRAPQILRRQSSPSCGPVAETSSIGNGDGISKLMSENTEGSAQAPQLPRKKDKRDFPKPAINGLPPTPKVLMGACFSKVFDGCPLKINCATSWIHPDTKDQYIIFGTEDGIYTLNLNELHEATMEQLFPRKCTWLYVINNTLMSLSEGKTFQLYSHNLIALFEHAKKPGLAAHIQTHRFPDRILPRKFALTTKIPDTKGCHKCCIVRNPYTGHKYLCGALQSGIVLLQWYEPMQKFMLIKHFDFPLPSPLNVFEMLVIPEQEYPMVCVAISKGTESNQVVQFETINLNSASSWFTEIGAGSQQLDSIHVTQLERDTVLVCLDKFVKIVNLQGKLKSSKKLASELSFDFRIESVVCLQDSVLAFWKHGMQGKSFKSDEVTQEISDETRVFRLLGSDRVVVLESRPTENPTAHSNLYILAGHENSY

Row | Compound | T/C, reduction of luminescence ([1]; 15 mg/kg orally once per day) [%] | T/C, reduction of luminescence ([1]; 30 mg/kg orally once per day) [%] | tumor inhibition at low dosages (luminescence) ([1]; 2, 4, 7, 10 mg/kg, po, qd) | mouse body weight [2] | spleen size (spleen weight over mouse body weight) [3] | extension of lifespan compared with vehicle control ([4]; 15 mpk) [days] | Median survival ([4]; 15 mpk, po) | extension of lifespan compared with vehicle control ([4]; 30 mpk) [days] | Median survival ([4]; 30 mpk, po) | life-span of the mouse model (in words) ([4]; po, qd, 15, 30 mg/kg) | inhibition at 1 µM (FLT4) [%] | inhibition at 1 µM (MAP4K3) [%] | inhibition at 1 µM (MAP4K5) [%]
1 | NC(=O)Nc1cc(C#Cc2cccc(F)c2)sc1C(=O)N[C@H]1CCCNC1 [Example 22, (S)-5-((3-fluorophenyl)ethynyl)-N-(piperidin-3-yl)-3-ureidothiophene-2-carboxamide] | 84.2 | 88.7 | dose-dependent tumor inhibition in vivo from a dosage of 2 mg/kg | did not alter the mouse body weight | reduced to the disease free spleen size | 26 | 23 | 29 | 27 | extended significantly the life-span | – | – | –
2 | Cc1ccc(C#Cc2cc(NC(N)=O)c(C(=O)N[C@H]3CCCNC3)s2)cc1 [Example 24, (S)—N-(piperidin-3-yl)-5-(p-tolylethynyl)-3-ureidothiophene-2-carboxamide] | – | – | – | – | – | – | – | – | – | – | 94.5 | 69 | 85
